# Experimental data published in US20070015723A1, “Antiviral oligonucleotides having a conserved G4 core sequence” (priority 1992, published 2007).
# Several values for one entry are separate records, joined by “and”; a condition that tells them apart may be missing. Equal entries are not always repeated. Where two headings read alike, the source gives them in different places. Strand notation (5' to 3'): a small letter for the sugar, then the base; units joined by * are phosphorothioate-linked, units joined directly phosphodiester-linked; [ ] holds rarer units or linkages, { } end groups; capitals alone tell only the bases. d = 2'-deoxy (DNA)
# Legend:
# [1] = biological target: T1, human type II phospholipase A2 (Homo sapiens, UniProt P14555); assay: Human type II phospholipase A2 enzyme assay (3H-oleic acid labelled E. coli substrate); format: biochemical; conditions: 1 μM
# T1 sequence (P14555 21-144): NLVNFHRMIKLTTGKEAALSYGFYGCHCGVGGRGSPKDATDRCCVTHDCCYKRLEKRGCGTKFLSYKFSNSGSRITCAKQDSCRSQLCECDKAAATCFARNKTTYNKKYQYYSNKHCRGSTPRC
# [2] = test system: HSV-1 (KOS); assay: HSV-1 infection ELISA assay; format: cell-based
# [3] = test system: influenza strain A/NWS/33 (H1N1); format: cell-based, influenza virus
# [4] = test system: Adenovirus, Type 5 (A-5), strain Adenoid 75; format: cell-based
# [5] = test system: rhinovirus 2 (R-2), strain HGP; format: cell-based, human rhinovirus
# [6] = test system: respiratory syncytial virus (RSV) strain Long; format: cell-based
# [7] = test system: HSV1-F; assay: HSV ELISA assay, strain HSV1-F; format: cell-based, HSV-1
# [8] = test system: HSV-2 strain E194; format: cell-based
# [9] = test system: HSV1-McKrae; assay: HSV ELISA assay, strain HSV1-McKrae; format: cell-based, HSV-1
# [10] = test system: HSV1-DM2.1; assay: microbe, parasite or virus in culture; format: cell-based, HSV-1
# [11] = test system: HSV1-PAAr; assay: microbe, parasite or virus in culture; format: cell-based, HSV-1
# [12] = test system: HSV-2; assay: HSV ELISA assay, HSV-2; format: cell-based
# [13] = test system: HIV-1IIIB; assay: Acute HIV infection assay (XTT, CEM cells); conditions: inhibition of HIV
# [14] = test system: CEM cell line
# [15] = test system: human cytomegalovirus; assay: Cytomegalovirus inhibition ELISA assay; format: cell-based; conditions: HCMV
# [16] = test system: HIV-1IIIB
# [17] = test system: HSV-1 (KOS); assay: HSV-1 virus yield assay; format: cell-based; conditions: for anti-HSV activity in virus yield assay: FIG. 2
# [18] = test system: vaccinia virus; format: cell-based; conditions: Vacc
# [19] = Table 5, two separate experiments
# [20] = 50% inhibition of HSV replication relative to control infected cells, Table 1
# [21] = HSV-1 (KOS strain), Table 9, some in duplicate
compound,measurement,setting,value
"ISIS 4672: GGG T GGG T ATA G, P = S, SEQ ID NO 50 (GGGTGGGTATAG; all phosphorothioate, sugars by position not given here)",% Inhibition (1 μM),[1]; [19],73.9% and 94.6%
same,EC50,[2]; [20],200 nM
NC(=O)c1ncn([C@@H]2O[C@H](CO)[C@@H](O)[C@H]2O)n1 [Ribavirin],ED50,[3],7780 nM
same,ED50,[4],82000 nM
same,ED50,[5],229000 nM
same,ED50,[6],49000 nM
"Nc1nc2c(ncn2COCCO)c(=O)[nH]1 [ACV, 9-(2-hydroxyethoxymethyl)guanine]",EC50,[7]; Human alphaherpesvirus 1,700 nM
same,ED50,[8],97700 nM
same,EC50,[9]; Human alphaherpesvirus 1,1800 nM
same,EC50,[10]; Human alphaherpesvirus 1,> 3000 nM
same,EC50,[11]; Human alphaherpesvirus 1,> 3000 nM
same,EC50,[12]; Human alphaherpesvirus 2,2000 nM
"ISIS 5667: TT GGGG TT GGGG TT, P = O, SEQ ID NO 56 (TTGGGGTTGGGGTT; all phosphodiester, sugars by position not given here)",IC50,[13],> 22000 nM
same,TC50,[14],5600 nM
"ISIS 5366: TTGGGGTTGGGGTTGGGGTTG GGGG, P = S, SEQ ID NO 33 (TTGGGGTTGGGGTTGGGGTTGGGGG; all phosphorothioate, sugars by position not given here)",IC50,[13],80 nM and 100 nM
same,IC50,[15],100 nM
same,TI (TC50/IC50),[16],220
same,TC50,[14],22000 nM
same,EC50,[2]; [20],160 nM
"ISIS 5590: GGGG TT GGGG, P = O, SEQ ID NO 46 (GGGGTTGGGG; all phosphodiester, sugars by position not given here)",IC50,[13],> 25000 nM
same,TC50,[14],20000 nM
same,EC50,[2]; [20],> 3000 nM
"ISIS 4873: CAT GAC CGG GGC, P = S, SEQ ID NO 4 (CATGACCGGGGC; all phosphorothioate, sugars by position and methylation of C not given here)",IC50,[13],1000 nM
same,EC50,[2]; [20],1400 nM and 1000 nM
"ISIS 5651: TT GGGG TT GGGG TT GGGG TT GGGG, P = S, SEQ ID NO 35 (TTGGGGTTGGGGTTGGGGTTGGGG; all phosphorothioate, sugars by position not given here)",IC50,[13],100 nM and 180 nM
same,TI (TC50/IC50),[16],175
same,anti-HSV activity in virus yield assay,[17],dose-dependent anti-HSV activity
same,antiviral activity in virus yield assay,"[17]; dose of 3 mM, FIG. 1",greater antiviral activity than did Acyclovir
same,EC50,[2]; [20],170 nM
"ISIS 5675: TT GGGG TT GGGG TT, P = S, SEQ ID NO 40 (TTGGGGTTGGGGTT; all phosphorothioate, sugars by position not given here)",IC50,[13],380 nM
same,TI (TC50/IC50),[16],36
same,TC50,[14],14000 nM
same,EC50,[2]; [20],420 nM
"ISIS 5677: GGGG TT GGGG TT GGGG TT GGGG, P = S, SEQ ID NO 36 (GGGGTTGGGGTTGGGGTTGGGG; all phosphorothioate, sugars by position not given here)",IC50,[13],100 nM and 190 nM
same,TI (TC50/IC50),[16],146
same,EC50,[2]; [20],200 nM
"ISIS 4717: GG GGT TGG GG, P = S, SEQ ID NO 26 (GGGGTTGGGG; all phosphorothioate, sugars by position not given here)",IC50,[13],410 nM
same,IC50,[15],1000 nM
same,% Inhibition (1 μM),[1]; [19],83.1%
same,EC50,[2]; [20],600 nM
"ISIS 5668: TT GGGG TT GGGG, P = O, SEQ ID NO 57 (TTGGGGTTGGGG; all phosphodiester, sugars by position not given here)",IC50,[13],> 21000 nM
same,TC50,[14],5200 nM
"ISIS 4897: CAC GGG GTC GCC GAT, P = S, SEQ ID NO 31 (CACGGGGTCGCCGAT; all phosphorothioate, sugars by position and methylation of C not given here)",IC50,[13],430 nM
same,EC50,[2]; [20],130 nM
"ISIS 1082: GCCGAGGTCCATGTCGTACGC, SEQ ID NO 134; negative control, complementary to HSV UL13 translation initiation codon, no runs of G (dG*dC*dC*dG*dA*dG*dG*dT*dC*dC*dA*dT*dG*dT*dC*dG*dT*dA*dC*dG*dC)",EC50,[7],> 3000 nM
same,EC50,[9],> 3000 nM
same,EC50,"[10]; HSV1-DM2.1 (resistant to ACV), read-out: EC50",> 3000 nM
same,EC50,[2]; [21],2500 nM and 1800 nM
same,EC50,"[2]; HSV-1 (KOS), Table 10",2100 nM
same,EC50,"[11]; HSV1-PAAr (resistant to ACV), read-out: EC50",> 3000 nM
same,EC50,[12],2000 nM
"ISIS 4664: GGG T GGG T ATA G AAG G GC, P = S, SEQ ID NO 48 (GGGTGGGTATAGAAGGGC; all phosphorothioate, sugars by position and methylation of C not given here)",EC50,[2]; [20],200 nM
"ISIS 4694: TA G AAG GGC TCC, P = S, SEQ ID NO 53 (TAGAAGGGCTCC; all phosphorothioate, sugars by position and methylation of C not given here)",EC50,[2]; [20],> 3000 nM
"ISIS 4560: GGGG C GGGG C GGGG C GGGG C G, P = S, SEQ ID NO 42 (dG*dG*dG*dG*dC*dG*dG*dG*dG*dC*dG*dG*dG*dG*dC*dG*dG*dG*dG*dC*dG)",IC50,[13],140 nM
same,IC50,[15],150 nM
same,% Inhibition (1 μM),[1]; Table 4,100%
same,EC50,[2]; [20],180 nM
"ISIS 5653: TT GGGG TT GGGG TT GGGG, P = S, SEQ ID NO 38 (TTGGGGTTGGGGTTGGGG; all phosphorothioate, sugars by position not given here)",IC50,[13],120 nM
same,anti-HSV activity in virus yield assay,[17],dose-dependent anti-HSV activity
same,TC50,[14],27000 nM
same,EC50,[2]; [20],200 nM
"ISIS 4882: CAT GGC GGG ACT ACG, P = S, SEQ ID NO 9 (CATGGCGGGACTACG; all phosphorothioate, sugars by position and methylation of C not given here)",EC50,[2]; [20],1700 nM and 1400 nM
"Nc1ncnc2c1ncn2[C@@H]1O[C@H](CO)[C@@H](O)[C@@H]1O [Ara-A, 9-(β-D-arabinofuranosyl)adenine]",ED50,[18],15800 nM
"ISIS 5674: TT GGGG TT GGGG, P = S, SEQ ID NO 41 (TTGGGGTTGGGG; all phosphorothioate, sugars by position not given here)",IC50,[13],430 nM
same,TC50,[14],>200000 nM
same,EC50,[2]; [20],1500 nM
"ISIS 4112: GACTGGGGCGAGGTAGGGGT, phosphorothioate, SEQ ID NO 132 (GACTGGGGCGAGGTAGGGGT; antisense; all phosphorothioate, sugars by position and methylation of C not given here)",EC50,[2]; [21],300 nM
"ISIS 5676: GGGG TT GGGG TT GGGG, P = S, SEQ ID NO 39 (GGGGTTGGGGTTGGGG; all phosphorothioate, sugars by position not given here)",IC50,[13],180 nM and 280 nM
same,TI (TC50/IC50),[16],114
same,anti-HSV activity in virus yield assay,[17],dose-dependent anti-HSV activity
same,EC50,[2]; [20],230 nM
"ISIS 4885: A GAC CGG GGT TGG GG, P = S, SEQ ID NO 24 (AGACCGGGGTTGGGG; all phosphorothioate, sugars by position and methylation of C not given here)",EC50,[2]; [20],420 nM and 510 nM
"ISIS 4342: TTGGAGACCGGGGTTGGGGA, phosphorothioate, SEQ ID NO 128 (TTGGAGACCGGGGTTGGGGA; antisense; all phosphorothioate, sugars by position and methylation of C not given here)",EC50,[2]; [21],200 nM
